In assay [1] the target is T1, DNA topoisomerase 1 (Escherichia coli (strain K12)) (UniProt P06612).
T1 sequence (whole entry): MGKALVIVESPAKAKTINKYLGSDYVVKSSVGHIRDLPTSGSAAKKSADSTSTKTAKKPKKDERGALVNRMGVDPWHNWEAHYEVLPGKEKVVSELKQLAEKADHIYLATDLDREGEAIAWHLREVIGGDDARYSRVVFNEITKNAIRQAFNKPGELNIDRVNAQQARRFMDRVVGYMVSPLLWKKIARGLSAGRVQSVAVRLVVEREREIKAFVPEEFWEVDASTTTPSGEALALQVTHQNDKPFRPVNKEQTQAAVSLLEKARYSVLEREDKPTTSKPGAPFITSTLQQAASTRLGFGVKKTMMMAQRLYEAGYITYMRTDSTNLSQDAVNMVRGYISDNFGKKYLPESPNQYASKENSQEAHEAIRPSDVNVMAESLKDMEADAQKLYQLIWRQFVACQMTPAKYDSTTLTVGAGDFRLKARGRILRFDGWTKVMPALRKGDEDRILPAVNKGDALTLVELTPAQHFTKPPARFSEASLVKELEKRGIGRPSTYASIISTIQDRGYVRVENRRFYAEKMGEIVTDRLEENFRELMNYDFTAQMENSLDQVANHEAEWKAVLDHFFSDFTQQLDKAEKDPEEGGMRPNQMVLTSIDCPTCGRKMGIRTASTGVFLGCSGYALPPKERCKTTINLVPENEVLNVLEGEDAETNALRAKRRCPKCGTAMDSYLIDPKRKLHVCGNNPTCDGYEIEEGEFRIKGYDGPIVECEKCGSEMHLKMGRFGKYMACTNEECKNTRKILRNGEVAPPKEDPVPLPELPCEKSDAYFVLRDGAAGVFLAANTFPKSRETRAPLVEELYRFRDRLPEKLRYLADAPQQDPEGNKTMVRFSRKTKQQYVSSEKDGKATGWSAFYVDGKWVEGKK
The assay is described as follows: Inhibition of Escherichia coli topoisomerase 1 mediated DNA relaxation at 1 uM using plasmid pMT-puro DNA as substrate after 30 mins by ethidium bromide staining-based agarose gel electrophoresis method.

Assay [2] concerns MCF7. Put plainly: Antiproliferative activity against human MCF7 cells assessed as reduction in cell viability measured after 72 hrs by MTT assay. The following applies: MCF7, 72 h. The format is functional, cell-based. In general terms: Tetrazolium dyes change colour on reduction, which living cells bring about.
For assay [3], the system named is A549. Put plainly: Antiproliferative activity against human A549 cells assessed as reduction in cell viability measured after 72 hrs by MTT assay. Particulars: A549, 72 h. The format is functional, cell-based.
In assay [4] the test system is HCT-116. Put plainly: Antiproliferative activity against human HCT116 cells assessed as reduction in cell viability measured after 72 hrs by MTT assay. The format is functional, cell-based. Particulars: HCT-116, 72 h.
In assay [5] the target is DNA topoisomerase 2-alpha (Homo sapiens) (UniProt P11388). Put plainly: Inhibition of human DNA topoisomerase 2 mediated decatenation at 10 uM using kDNA as substrate after 30 mins by ethidium bromide staining-based agarose gel electrophoresis method.
Assay [6] deals with T1, DNA topoisomerase 1 (Escherichia coli (strain K12)). The assay is described as follows: Inhibition of Escherichia coli topoisomerase 1 mediated DNA relaxation at 10 uM using plasmid pMT-puro DNA as substrate after 30 mins by ethidium bromide staining-based agarose gel electrophoresis method.
For assay [7] the target is unchanged. The assay is described as follows: Inhibition of Escherichia coli topoisomerase 1 mediated DNA relaxation using plasmid pMT-puro DNA as substrate after 30 mins by ethidium bromide staining-based agarose gel electrophoresis method.

Active and inactive are the calls of the source. The rule behind the calls is not given here.

DNA topoisomerase 2-alpha (Homo sapiens), sequence (P11388 whole entry): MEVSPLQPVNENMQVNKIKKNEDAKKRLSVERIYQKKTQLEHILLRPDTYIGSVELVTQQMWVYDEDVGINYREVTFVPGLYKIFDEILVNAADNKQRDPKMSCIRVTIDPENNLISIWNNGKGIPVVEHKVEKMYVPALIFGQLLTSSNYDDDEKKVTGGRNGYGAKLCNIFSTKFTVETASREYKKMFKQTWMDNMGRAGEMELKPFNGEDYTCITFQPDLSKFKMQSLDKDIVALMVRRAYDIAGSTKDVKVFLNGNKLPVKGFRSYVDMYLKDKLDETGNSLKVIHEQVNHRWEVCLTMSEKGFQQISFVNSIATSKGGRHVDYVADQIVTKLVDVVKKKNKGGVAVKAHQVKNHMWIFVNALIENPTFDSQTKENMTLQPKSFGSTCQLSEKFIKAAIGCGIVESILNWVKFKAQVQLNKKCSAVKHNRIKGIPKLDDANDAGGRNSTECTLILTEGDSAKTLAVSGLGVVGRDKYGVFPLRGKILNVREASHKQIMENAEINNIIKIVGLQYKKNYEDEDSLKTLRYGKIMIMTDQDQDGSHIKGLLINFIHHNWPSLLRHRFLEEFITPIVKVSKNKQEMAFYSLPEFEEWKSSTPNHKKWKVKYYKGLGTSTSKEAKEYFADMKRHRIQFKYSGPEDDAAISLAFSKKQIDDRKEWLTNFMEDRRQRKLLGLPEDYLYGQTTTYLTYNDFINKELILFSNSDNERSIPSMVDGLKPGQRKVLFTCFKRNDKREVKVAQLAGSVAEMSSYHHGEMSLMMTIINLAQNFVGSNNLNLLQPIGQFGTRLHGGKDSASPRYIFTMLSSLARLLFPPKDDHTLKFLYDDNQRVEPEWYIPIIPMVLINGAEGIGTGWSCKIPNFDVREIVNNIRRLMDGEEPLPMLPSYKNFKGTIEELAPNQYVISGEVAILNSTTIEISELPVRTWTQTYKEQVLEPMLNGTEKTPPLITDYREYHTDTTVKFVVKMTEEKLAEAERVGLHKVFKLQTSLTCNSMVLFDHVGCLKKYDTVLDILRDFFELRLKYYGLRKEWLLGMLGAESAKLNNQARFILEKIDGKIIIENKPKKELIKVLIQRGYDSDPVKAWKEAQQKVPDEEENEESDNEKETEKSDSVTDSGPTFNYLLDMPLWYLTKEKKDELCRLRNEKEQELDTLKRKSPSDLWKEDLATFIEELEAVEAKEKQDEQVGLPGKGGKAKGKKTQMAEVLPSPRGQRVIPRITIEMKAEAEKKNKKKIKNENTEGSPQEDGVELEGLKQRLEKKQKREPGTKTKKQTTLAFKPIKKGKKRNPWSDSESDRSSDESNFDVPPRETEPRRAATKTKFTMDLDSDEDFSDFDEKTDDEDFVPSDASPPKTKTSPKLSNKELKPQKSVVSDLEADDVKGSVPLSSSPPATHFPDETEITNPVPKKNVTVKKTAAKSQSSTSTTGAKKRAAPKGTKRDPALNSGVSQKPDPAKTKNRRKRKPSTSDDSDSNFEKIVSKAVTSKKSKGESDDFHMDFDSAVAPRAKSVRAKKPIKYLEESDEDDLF

Turning to `CC[C@@]1(O)C(=O)OCc2c1cc1n(c2=O)Cc2cc3ccccc3nc2-1`, in assay [1], the inhibition result is “Active”.

As to `CCCCCCC[C@@H]1Cc2cc(O)c(C(=O)O)c3c2[C@H](O1)[C@H]1[C@@H](OC)/C=C(/COC(C)=O)[C@H]2CC(C)(C)[C@]2(O)[C@@H](OC(C)=O)C[C@]1(C)O3`, the half-maximal inhibitory concentration (IC50) in assay [2], in assay [3] and in assay [4] was greater than 10 µM throughout. Also, the inhibition entry in assay [5] and in assay [6] was “inactive” each time.

On to `CO[C@@H]1/C=C(\C)C[C@H](O)[C@]2(O)[C@H](CC2(C)C)/C(CO)=C\1`, for which the IC50 in assay [2], in assay [3] and in assay [4] was greater than 10 µM in each case. In addition, the inhibition result in assay [5] and in assay [6] was “inactive” each time.

`C=C1CC[C@@H]2[C@H]3O[C@H](CCCCCCC)Cc4cc(O)c(C(=O)O)c(c43)O[C@@]2(C)CC[C@@H]2[C@@H]1CC2(C)C`: the inhibition result in assay [7] is “Dose-dependent effect”. The IC50 – broadly, the midpoint of a concentration-inhibition curve – in assay [2] came out at 7.28 µM; in assay [3] it was 5.01 µM; in assay [4], 3.91 µM. Further, the inhibition result in assay [5] and in assay [6] was “Active” in each case.

With `CCCCCCC[C@@H]1Cc2cc(O)c(C(=O)O)c3c2[C@H](O1)[C@H]1[C@@H](OC)/C=C(/CO)[C@H]2CC(C)(C)[C@]2(O)[C@@H](O)C[C@]1(C)O3`, the IC50 in assay [2], in assay [3] and in assay [4] was greater than 10 µM in each case. Moreover, the inhibition entry in assay [5] and in assay [6] was “inactive” throughout.

Regarding `CCCCCCC[C@@H]1Cc2cc(O)c(C(=O)O)c3c2[C@H](O1)[C@H]1[C@@H](OC)/C=C(/COC(C)=O)[C@H]2CC(C)(C)[C@]2(O)[C@@H](O)C[C@]1(C)O3`, the values for the IC50 in assay [2], in assay [3] and in assay [4] were 8.88 µM, 6.31 µM and 5.98 µM, respectively. Further, the inhibition result in assay [5] was “inactive”. Besides, the inhibition entry in assay [6] was “Active”.

Turning to `C[C@H]([C@H](C)N1CC(=O)NC(=O)C1)N1CC(=O)NC(=O)C1`, the inhibition entry in assay [5] is “Active”.

For the compound `CO[C@@H]1/C=C(\C)C[C@H](OC(C)=O)[C@]2(O)[C@H](CC2(C)C)/C(COC(C)=O)=C\1`, the concentration for half-maximal inhibition (IC50) in assay [2], in assay [3] and in assay [4] was greater than 10 µM in each case. In addition, the inhibition entry in assay [5] and in assay [6] was “inactive” in each case.

With `CCCCCCC[C@@H]1Cc2cc(O)c(C(=O)O)c(O)c2[C@H](O)O1`, the half-inhibitory concentration (IC50) in assay [2], in assay [3] and in assay [4] was greater than 10 µM each time. In addition, the inhibition entry in assay [5] is “Active”. Also, the inhibition entry in assay [6] was “inactive”.
